# Measurements as given in US20200093782A1, “ARIANTS OF 2-[6-(4-CHLOROPHENOXY)HEXYL]-OXIRANE-2-CARBOXYLIC ACID FOR USE IN THE TREATMENT, PREVENTION AND/OR AMELIORATION OF BRAIN DISEASES” (Meta-IQ ApS, priority 2016, published 2020).
# How the values were obtained:
# [1] = test system: rats; assay: Sucrose consumption in rats after drinking the drug (test of crossing the BBB); format: in vivo, rat
# Procedure: First rats are given R(+)-etomoxir ethyl ester formulated water (4 mg/day) every day for 20 days. Then once a week the sucrose consumption was measured. This study is designed to test is R(+)-etomoxir ethyl ester reaches the brain and therefore is it can cross the blood-brain-barrier (BBB).
# Blocking CPT-1 in hypothalamus (applied in the drinking water) […] food intake.
# [2] = test system: C57B16 mice; assay: Mouse EAE model (MOG 35-55), therapeutic treatment; format: in vivo; settings: 1 mg/kg/day s.c. in olive oil for 2 weeks, start ten days after MOG injection
# Excerpt: Six week old C57B16 mice were bred and kept at conventional animal facilities at the University of Copenhagen. Female Lewis rats, 2 months old were used for this study.
# All animals were weighed and scored clinically on a daily basis. During progression of EAE, leading to motor disabilities, animals had water in a Petri dish and soaked chow for easy intake to ensure sufficient intake of liquid and nutrients. Healthy animals were used as comparison and control of the EAE exposed animals. […]
# The animals were monitored daily, weighed and clinically scored according to the following scale (Imrich and Harzer 2001): 0, no clinical signs of EAE; 1, loss of tail tonus; 2, mild paresis in one or both hindlimbs; 3, moderate paresis in one or both hindlimbs; 4, severe paresis or paralysis in one or both hindlimbs; 5, paralysis in one or both hindlimbs and visible paresis in one or both forelimbs, incontinence; 6, moribund. […]
# CPT1 Blockers Have a Therapeutic Effect in Rodent Models with EAE. […] The animals were daily tested for body weight and disease score (Disease was scored as follows; 0=no disease, 1=limp tail, 2=hind-limb paresis, 3=hind-limb paralysis, 4=hind/forelimb paralysis, and 5=death). […]
# [3] = test system: rats; assay: Long term memory test (light/dark shock compartment) with or without MK801; format: in vivo, rat; settings: MK801, sub cutaneous injection 1 hour before the test
# Procedure: Rats are put in a cage where in the dark part (where they like to be) the bedding gives a shock. They are put in the light part during training. The next day the rats are put in the light part again, when long term memory is there, they will not like to go in the dark part (shock compartment).
# MK801, blocks the generation of memory.
# (§1) Etomoxir was given by sub cutaneous injection 1 hour before the test.
# [4] = test system: Lewis rats; assay: Rat EAE model (MBP in CFA); format: in vivo
# [5] = test system: rats; assay: Short term memory test (3 corridors, alternation ratio) with or without MK801; format: in vivo, rat; settings: MK801, sub cutaneous injection 1 hour before the test
# Procedure: Rats are put in a compartment with 3 corridors. While looking for food, they will first go in 1 corridor, then when no food is found go in the next and when they have a good short term memory, go in the 3rd after that. (this is measured as alternation ratio) MK801 destroys short term memory. Etomoxir restores short term memory.
# as §1
# [6] = test system: Male Wistar rats; assay: Chronic mild stress (CMS) induced depression, sucrose consumption test; format: in vivo, rat
# Excerpt: Treatment of stress-induced depression by blocking carnitine palmitoyl transferase 1 Rats were initially exposed to four weeks of CMS and subsequently exposed to stressors for another five weeks combined with drug or vehicle treatment (FIG. 7). The intake of sucrose solution was used in order to determine the depression status among rats. […] Moreover, statistical significant difference was found between Escitalopram and Etomoxir treatment in week two, four and five.
# The percentage of animals responding over time receiving Etomoxir, Escitalopram or vehicle was compared (FIG. 8). The criterion for responders was set at 20% increase in intake of sucrose at the respective weeks compared to baseline prior to onset of treatment. The percentage of responding rats to Etomoxir treatment was higher than Escitalopram treatment.
# Male Wistar rats were used for the CMS model. The weight of the rats was approximately 200 g when the experiment was initiated. The rats were housed singly with 12 h light/dark cycle and food and water was available ad libitum except when these parameters were applied as stress inducers. The following paragraphs concerning the CMS model was performed according to the protocol by Wiborg et al.
# In order to quantify the hedonic state of the animals a sucrose consumption test was performed. The animals were trained in five weeks in order to consume a palatable sucrose solution. […]
Structure (SMILES),"sucrose consumption ([1]; 4 mg/day in drinking water, every day for 20 days, measured once a week)","crossing of the blood-brain-barrier (BBB) ([1]; oral (drinking water), concluded from increased sucrose consumption)",symptom-free animals at the end of the study [2] [%],animals with restored long term memory [3] [%],"therapeutic effects when started at day 1 or day 5 ([4]; treatment from day 1 or day 5 after induction, compared with placebo)","disease- and symptom-free rats ([4]; treatment started at day 7 after induction, read at day 11 (end of study)) [%]",short term memory [5],"percentage of responding (healthy) rats ([6]; 5 weeks of treatment with continued stress, responder = 20% increase in sucrose intake vs baseline) [%]","intake of sucrose solution compared to vehicle group ([6]; five weeks of i.p. daily treatment under stress, Etomoxir 4 mg/kg, Escitalopram 5 mg/kg)"
"CCOC(=O)[C@@]1(CCCCCCOc2ccc(Cl)cc2)CO1 [R(+)-etomoxir ethyl ester, R(+)-2-[6-(4-chlorophenoxy)hexyl]-oxirane-2-carboxylic acid ethyl ester]",increased sucrose consumption,can cross the blood-brain-barrier (BBB) and reach the brain,52,40,significantly better therapeutic effects compared to IFNb,25,restores the animal's short term memory,,
CN(C)CCC[C@@]1(c2ccc(F)cc2)OCc2cc(C#N)ccc21 [Escitalopram],,,,,,,,57,no significant difference
